Results on one molecule are retold here after patent US7560267B2, “Apparatus and methods for on-chip monitoring of cellular reactions” (City University of Hong Kong, priority 2002, dated 2009).

Experiment [1] concerns HL60 cells. As to the kind of experiment: On-chip ATP-dependent calcium uptake in docked HL60 cells (Fluo-3 fluorescence, concentration gradient). The experiment is classed as cell-based. As for the experimental part: A practical embodiment of the present invention will now be described with reference to a typical experiment of the type for which the present invention is particularly suitable. In particular, in the following example an embodiment of the invention will be used to calculate the threshold ATP concentration that induces calcium uptake in HL60 mammalian cells. In this example HL60 cells (leukemia, promyelocytic) were suspended in 0.5 ml fresh RPMI 1640 with Pluronic F-127 (1% w/v final) and Fluo3-AM (2 micro molar final). After 30 minutes of incubation at room temperature, cells were re-suspended in (Hank's balanced salt solution) HBSS before loading into the apparatus. The example was carried out with an apparatus as shown in FIG. 1 and manufactured as described above. Before use, the etched quartz plate and a PDMS cover were touch-bonded and irradiated with UV light for 10 minutes in a bio-safety cabinet. After filling up micro-channels with buffer by capillary action, the apparatus was securely mounted on the stage of confocal microscope. Introduction of various fluids was implemented by using a 2-20 […] auto-pipette (HLT pipette-mate). An Axiovert 100M confocal microscope (Carl Zeiss) was used for data acquisition. Profiling data analysis mode was employed to present PMT response along a specific line in the apparatus. All fluorophores were excited by Argon (488 nm) laser. An emission filter 505-530 nm was used for Fluo-3 and AO while a 560 nm (long-pass) filter was used for ethidium bromide (EB) study. Scanning parameters were kept identical throughout all experiments for a particular fluorophore. Mammalian HL60 cells uptake extracellular calcium ions when the buffer ATP concentration is beyond a particular level. The minimum ATP concentration required to induce calcium uptake is referred as the threshold concentration. In this example of the use of an embodiment of the invention, cell docking and analyte concentration gradient were combined to determine the threshold concentration of ATP-dependent calcium uptake. The fluorescence images of the microchip under different conditions are shown in FIG. 6, with about 80 docked cells along the dam. In the “control” image and intensity measurement, the background cellular signal was due to the presence of intracellular calcium in HL60 cells. When an ATP solution (2 μM) was loaded into the CW/A vial, the cellular signal intensity was increased by 3-fold in the first zone (A to B) as compared to other zones (FIGS. 6 & 7, 2 μM images). The ATP threshold concentration can therefore be visualized as being between points B and C. After washing with buffer, the same batch of docked HL60 cells were exposed to higher ATP concentrations. Using the same LLP, the threshold concentration range shifted downstream with increasing analyte concentrations. As shown in FIGS. 6 & 7, with 5 μM ATP loaded into the apparatus, the cellular fluorescence intensity-in the first (A to B) and second (C to D) zones were enhanced. The threshold concentration range was shifted to the zone between points D & E. Repeating this process with 10 μM ATP, the Ca-related fluorescence in all cells in all zones were excited, (the signal intensity at the first zone was relatively weak due to desensitization from multiple ATP stimulations.). […] Using this equation, a relationship between liquid levels H and flow quantity Q can be derived: H=RQ+KQ2 (2) where parameters R and K depends on the geometrical profile of the channels. […]

In experiment [2] the test system is HL60 cells. The experiment in a line: ATP threshold concentration by conventional fluorescence measurements (13 serial dilution experiments). The experiment is classed as cell-based. As to conditions: 13 individual serial dilution experiments, FIG. 8. As for the experimental part:
FIG. 8 is a plot of ATP threshold concentration obtained by conventional techniques for comparison purposes, In this example, first of all a viability test was carried out to confirm that after docking a sufficient number of living cells were safely docked, and then a concentration gradient was made visible by a fluorophore. When the presence of a viable number of docked cells, and the creation of a concentration gradient were confirmed, the threshold concentration for calcium uptake was calculated using the apparatus of the invention, and then the results compared with an experiment using conventional serial dilution techniques. The ATP concentration gradient along the dam structure was estimated according to the above computational model. Combining the results obtained in 2 μM and 5 μM ATP stimulations, the threshold concentration was estimated within a range of 0.16±0.02 μM. The threshold concentration was also determined using conventional fluorescence measurements. […] The threshold concentration range was determined to be 0.15-0.19 μM, which is in good agreement with the result obtained using the embodiment of the present invention.

Consider `Nc1ncnc2c1ncn2[C@@H]1O[C@H](COP(=O)(O)OP(=O)(O)OP(=O)(O)O)[C@@H](O)[C@H]1O` [ATP], for which the “increase of cellular signal intensity (fold)” value in experiment [1] (2 μM ATP loaded into CW/A vial, first zone (A to B) compared to other zones) is 3 fold. The cellular fluorescence intensity result in experiment [1] (5 μM ATP loaded, first (A to B) and second (C to D) zones) is recorded as “enhanced”. Also, the Ca-related fluorescence result in experiment [1] (10 μM ATP loaded, all cells in all zones) is given as “excited”. In addition, in experiment [1] (on-chip, HL60 cells, estimated from computational gradient model combining 2 μM and 5 μM ATP stimulations), the “threshold concentration of ATP-dependent calcium uptake” value is 0.16 ± 0.02 µM. Moreover, in experiment [1] (on-chip, HL60 cells, indicated by experimental results before gradient estimation), the “threshold ATP concentration” value was “below 2 μM”. The same molecule gave a threshold concentration range in experiment [2] of 0.15 to 0.19 µM.
